Experimental data from patent US11311613B2, “Development of agonist epitopes of the human papillomavirus” (priority 2016, dated 2022).
“Also recorded” adds a separate entry of the source. Read-outs that look alike come from different tables or passages of the source.

Columns and labels:
CTL (T cells) = assay: IFN-γ production by CTL stimulated by autologous B cells pulsed with corresponding peptide; assay type: cell-based, human; set-up: key to IFN-γ: + denotes a greater level than the native epitope; = denotes the same level as the native epitope; − denotes a lower level than the native epitope; conditions: for interferon production (in words): T cells stimulated by peptide-pulsed autologous B cells
Description: Autologous B cells were pulsed with each native and agonist E6 peptides to stimulate production of interferon by T cells.
Autologous B cells were pulsed with each native and agonist E7 peptides to stimulate production of interferon by T cells.

[1] = tested on: CaSki cervical carcinoma cell line (HPV16 E6 and E7 positive HLA-A2 positive); assay: Lysis of CaSki tumor cells by peptide-specific CTLs; assay type: cell-based, human; set-up: key to Lysis: + denotes a greater level than the native epitope; = denotes the same level as the native epitope; − denotes a lower level than the native epitope; conditions: for % specific lysis (SD), CaSki (HLA-A2+ HPV E6+ and E7+): CTLs at IVS5, effector-to-target ratio 25:1; for Lysis: level compared with the native epitope; for lysis of CaSki cervical carcinoma cells (in words): compared to T cells generated with the native epitope counterpart
Description: (§1) HPV-specific T cells were generated using infection of dendritic cells (DCs) with Ad-HPV followed by stimulation of the T cells with each agonist and native peptide. In particular, DCs were infected with Ad5 HPV at 20,000 MOI. Infected DCs were used to generate specific CTLs using autologous PBMC. Autologous DCs were used as APCs for three in vitro stimulations (IVS). Autologous peptide-pulsed B cells were used to re-stimulate antigen-specific CTLs for two additional IVS. CTLs were used at IVS5.
(§2) Results are expressed in % specific lysis (SD). Effector-to-target ratio used was 25:1. CTLs were established from a normal HLA-A2 donor. CaSki is a cervical carcinoma cell line (HPV16 E6 and E7 positive HLA-A2 positive). ASPC-1 is a pancreatic cancer cell line (HPV16 E6 and E7 negative HLA-A2 negative).

[2] = tested on: ASPC-1 pancreatic cancer cell line (HPV16 E6 and E7 negative HLA-A2 negative); assay: Lysis of ASPC-1 control cells by peptide-specific CTLs; assay type: cell-based, human; conditions: CTLs at IVS5, effector-to-target ratio 25:1; for % specific lysis (SD), ASPC-1 (HLA-A2neg HPV E6neg and E7neg): Table 4; for % specific lysis (SD), ASPC-1: Table 5
Description: as §1, §2
(§3) Results are expressed in % specific lysis (SD). Effector-to-target ratio used was 25:1. CTLs were established from a normal HLA-A2 donor. HN-4 and HN-12 cells are head and neck squamous carcinoma cell lines (HLA-A2 positive). ASPC-1 is a pancreatic cancer cell line (HPV16 E6 and E7 negative HLA-A2 negative).

HLA-A2 molecules = biological target: T1, HLA-A2 molecules (Homo sapiens, UniProt P04439, D140Y/D185E/D98H/E176V/E277Q/G131W/G231S/I119V/I121R/I166T/I218V/L300P/L318F/N151K/N90K/P208A/P217A/Q86G/Q94H/R138H/R169H/T345S); assay: T2A2 binding of HPV-16 E6/E7 peptides to HLA-A2; set-up: T2A2 Binding: unit not given here
T1 construct: endogenous in cells; host or cells: T2A2 cells (T2 cell line expressing HLA-A2; only the column head names it)

[3] = tested on: HN-4 head and neck squamous carcinoma cell line (HLA-A2 positive); assay: Lysis of HN-4 cells by peptide-specific CTLs; assay type: cell-based, human; conditions: for % specific lysis (SD), HN-4: CTLs at IVS5, effector-to-target ratio 25:1; for lysis of HN-4 (in words): compared to native counterparts
Description: as §1, §3

[4] = tested on: HN-12 head and neck squamous carcinoma cell line (HLA-A2 positive); assay: Lysis of HN-12 cells by peptide-specific CTLs; assay type: cell-based, human; conditions: for % specific lysis (SD), HN-12: CTLs at IVS5, effector-to-target ratio 25:1; for lysis of HN-12 (in words): compared to native counterparts
Description: as §1, §3

[5] = tested on: HPV-specific T cell lines; assay: IFN-γ production by HPV-specific T cell lines stimulated with Ad5-infected human dendritic cells; assay type: cell-based; conditions: for activation of T cells directed against the epitope (in words): human DCs infected with Ad-5[E1,E2b^neg]HPV
Experimental: Human DC (6 day culture in IL-4 and GM-CSF) were infected with Ad5 [E1,E2b]-HPV vector and Ad5 [E1,E2b]-Null at 1×10^5/well (24-well plate) in 0.5 ml of AIM-V. Ad5 vectors were used at 20,000 MOI for 1 hour and then 1.5 ml of AIM-V were added to each well. Infected DCs were incubated for 48 hours and then washed and used for stimulation of human antigen-specific T cells. Results are expressed in pg of IFN-γ per 5×10^5 T cells/ml. DC only=<0.73 pg/ml.

[6] = CTL line stimulated by autologous B cells pulsed with corresponding HPV-16 E6 peptide
[7] = E6 CTL line, autologous B cells with NO peptide
[8] = DCs infected with Ad5 [E1,E2b]-HPV (20,000 MOI)
[9] = DCs infected with Ad5 [E1,E2b]-Null (20,000 MOI)
[10] = CTL line stimulated by autologous B cells pulsed with corresponding HPV-16 E7 peptide
[11] = E7 CTL line, autologous B cells with NO peptide
[12] = level compared with the native epitope

Sequence | IFN-γ (CTL (T cells); [6]) [pg/mL] | IFN-γ (CTL (T cells); [7]) [pg/mL] | % specific lysis (SD), CaSki (HLA-A2+ HPV E6+ and E7+) [1] | % specific lysis (SD), ASPC-1 (HLA-A2neg HPV E6neg and E7neg) [2] | T2A2 Binding (HLA-A2 molecules; binding to HLA-A2) | % specific lysis (SD), ASPC-1 [2] | % specific lysis (SD), HN-4 [3] | % specific lysis (SD), HN-12 [4] | IFN-γ [5, 8] | IFN-γ [5, 9] | IFN-γ ([5]; DCs only (uninfected)) | IFN-γ ([5]; No DCs) | IFN-γ (CTL (T cells); [10]) [pg/mL] | IFN-γ (CTL (T cells); [11]) [pg/mL] | Lysis [1] | other results
KISEYRHYC [E6-2, reference compound] | 455 | <15.6 | 45.1 (2.8) % | 0.5 (0.7) % |  |  |  |  |  |  |  |  |  |  |  | 
QQYNKPLCDL [E6-3, reference compound] | 338 | 121 | 38.1 (3.3) % | 0.6 (0.2) % | 1,020 | -1.1 (0.7) % | 7.0 (0.4) % | 10.2 (3.8) % | 135 pg of IFN-γ per 5×10^5 T cells/ml | 58.5 pg of IFN-γ per 5×10^5 T cells/ml | <0.73 pg of IFN-γ per 5×10^5 T cells/ml | <0.73 pg of IFN-γ per 5×10^5 T cells/ml |  |  |  | 
TLHEYMLDL [E7-2, reference compound] |  |  | 59.2 (5.3) % | 0.1 (1.0) % |  |  |  |  |  |  |  |  | 475 | 95.6 |  | 
YMLDLQPET [E7-1, reference compound] |  |  | 39.8 (1.7) % | 0.4 (0.3) % | 1,105 |  |  |  |  |  |  |  | 247 | 155.6 |  | 
YMLDLQPEV [E7-A1] |  |  | 27.8 (3.6) % | 0.9 (0.6) % | 1,171 |  |  |  |  |  |  |  | 230 | <15.6 | − | IFN-γ (CTL (T cells); [12]): =
TLHEYMLDV [E7-A2] |  |  | 41.9 (4.1) % | 0.6 (1.3) % | 1,529 |  |  |  |  |  |  |  | 95.3 | <15.6 | − | HLA-A2 binding (in words) (HLA-A2 molecules): strongest; also recorded: good binding; interferon production (in words) (CTL (T cells)): low and produced more interferon than the agonist counterpart; IFN-γ (CTL (T cells); [12]): −
RTLEDLLMGV [E7-A3] |  |  | 54.5 (7.3) % | 0.6 (0.1) % | 1,263 | 0.6 (0.7) % | 40.2 (1.8) % | 41.9 (2.9) % | 931 pg of IFN-γ per 5×10^5 T cells/ml | <0.73 pg of IFN-γ per 5×10^5 T cells/ml | <0.73 pg of IFN-γ per 5×10^5 T cells/ml | <0.73 pg of IFN-γ per 5×10^5 T cells/ml | 840 | <15.6 | + | HLA-A2 binding (in words) (HLA-A2 molecules): strongest; interferon production (in words) (CTL (T cells)): best interferon production; lysis of CaSki cervical carcinoma cells (in words) [1]: Enhanced lysis; lysis of HN-4 (in words) [3]: more lysis; lysis of HN-12 (in words) [4]: more lysis; activation of T cells directed against the epitope (in words) [5]: able to activate
RTLEDLLMGT [E7-3, reference compound] |  |  | 49.6 (8.7) % | 0.5 (0.1) % |  | 1.1 (0.7) % | 25.8 (3.5) % | 34.6 (3.9) % | 560 pg of IFN-γ per 5×10^5 T cells/ml | 70.8 pg of IFN-γ per 5×10^5 T cells/ml | 4.24 pg of IFN-γ per 5×10^5 T cells/ml | <0.73 pg of IFN-γ per 5×10^5 T cells/ml | 338 | <15.6 |  | 
KISEYRHYV [E6-A2] | 172 | <15.6 | 24.2 (1.2) % | 0.2 (0.5) % | 877 |  |  |  |  |  |  |  |  |  | − | interferon production (in words) (CTL (T cells)): produced more interferon than the agonist counterpart; IFN-γ (CTL (T cells); [12]): −
QLYNKPLCDV [E6-A3] | 653 | <15.6 | 49.1 (11.9) % | 0.3 (0.9) % | 1,280 | 0.5 (0.8) % | 30.6 (5.3) % | 38.4 (7.5) % | 452 pg of IFN-γ per 5×10^5 T cells/ml | 0.78 pg of IFN-γ per 5×10^5 T cells/ml | 8.06 pg of IFN-γ per 5×10^5 T cells/ml | 0.9 pg of IFN-γ per 5×10^5 T cells/ml |  |  | + | A2 Binding (HLA-A2 molecules; [12]): +; lysis of CaSki cervical carcinoma cells (in words) [1]: Enhanced lysis; lysis of HN-4 (in words) [3]: more lysis; lysis of HN-12 (in words) [4]: more lysis; activation of T cells directed against the epitope (in words) [5]: able to activate
KLPQLCTEL [E6-1, reference compound] | 264 | <15.6 | 34.1 (3.6) % | 2.4 (0.6) % |  | 0.3 (0.9) % | 21.2 (4.4) % | 16.5 (1.7) % | 114 pg of IFN-γ per 5×10^5 T cells/ml | <0.73 pg of IFN-γ per 5×10^5 T cells/ml | 2.17 pg of IFN-γ per 5×10^5 T cells/ml | <0.73 pg of IFN-γ per 5×10^5 T cells/ml |  |  |  | T2A2 Binding (HLA-A2 molecules): 853
